Columns and labels:
[1] = system: tumor necrosis factor-alpha (TNF-α) in LPS induced monocytes (THP-1 cells); assay: inhibition of TNF-α secretion in LPS induced monocytes (ELISA); assay type: cell-based, human; conditions: 75 and 100 μg/ml, LPS induced THP-1 cells
Protocol: (§1) Tumor necrosis factor-alpha (TNF-α) and Interleukin-1 beta (IL-1β) are both cytokines (small cell-signalling protein molecules) linked to inflammatory responses. Thus, the present inventors have tested the ability of isolated barettin (designated MCB-011 in the present experiment) to inhibit the secretion of these cytokines in LPS induces monocytes (THP-1 cells).
(§2) THP-1 cells were grown in RPMI-1640 supplemented with gentamycin and FBS and incubated at 37° C. with 5% CO2. To differentiate the monocytes into macrophages, 50 ng/ml PMA was added. Approximately 10^5 cells supplemented with 50 ng/ml PMA were seeded in 96 well plates and incubated at 37° C., 5% CO2 for 48 hours. The cells were controlled using a microscope after 24 h to make sure they had started to differentiate. After 48 h the cells were washed and new RPMI (w/o PMA) added before another 24 h incubation.
(§3) The cells were added 90 μl fresh medium and 10 μl test compound at various concentrations in duplex. After incubation for 1 h, 1 ng/ml LPS was added to all samples except negative controls. Incubation for 6 h at 37° C. followed. The reactions were stopped by freezing the plates at −80° C. immediately after incubation. One day prior to ELISA testing MaxiSorp 96F-well plates were coated with 2 μg/ml capture antibody (Ab) and placed in the refrigerator overnight. […] Results were read at DTX880 at 405 nm.

[2] = system: Interleukin-1 beta (IL-1β) in LPS induced monocytes (THP-1 cells); assay: inhibition of IL-1β secretion in LPS induced monocytes (ELISA); assay type: cell-based, human; conditions: 75 and 100 μg/ml, LPS induced THP-1 cells
Protocol: as §1, §2, §3

[3] = FRAP (ferric reducing antioxidant power) assay; assay type: biochemical; conditions: for FRAP value: 30 μg/ml; for FRAP dose-response: FIG. 2
Protocol: The inventors used the biochemical assay FRAP (ferric reducing antioxidant power) to obtain an indication of the antioxidant potential of MBC-005 (isolated brominated) and MBC-007 (synthetic de-brominated).
Reagents were prepared according to benzie, I.F.F. et al. Analytical Biochemistry 1996, 239, 70-76 and carried out in a DTX 880 Multimode Detector (Beckman Coulter, Calif., USA) at 595 nm. Trolox (Sigma, 238813) was used to prepare the standard curve (0-250 μM; working concentration). The FRAP reagent (TPTZ (2,4,6-Tris(2-pyridyl)-s-triazine): Fluka, 93285; Fe: Merck 103943) was prepared daily. The assay was carried out in clear 96-well plates, with 20 μl sample and 150 μl FRAP-reagent added to each well in duplicates. Water was used as a blank. Samples were incubated at 37° C. for 30 min before reading the plate. The blank was subtracted from each sample and a standard curve was created from the average absorbance of the duplicated Trolox samples. The equation generated from the standard curve was used to calculate the trolox equivalents (TE) from each sample. Results were expressed as μM TE.

[4] = ORAC (oxygen radical absorbance capacity) assay; assay type: biochemical; conditions: for ORAC dose-response: FIG. 3
Protocol: The inventors used the biochemical assay ORAC (oxygen radical absorbance capacity) to obtain an indication of the antioxidant potential of MBC-005 (isolated brominated) and MBC-007 (synthetic de-brominated).
The method has been modified from Huang, D. et al., Journal of Agricultural and Food Chemistry 2002, 50, 4437-4444. The assay was carried out in black 96-well plates (Nunc 7350004) and using a Victor3 Plate Reader (Perkin Elmer, Mass., USA) at 37° C. (exitation 486 nm, emission 520 nm). All reagents were dissolved in 75 mM phosphate buffer (PB) (pH 7,4). Different concentrations of the MBC-005 and MBC-007 preparations were added in duplicates followed by addition of 125 μl fluorescein (Fluka, 46960) (52 nM final concentration). After a 15 minute incubation at 37° C., 60 μl AAPH (2,2′-Azobis(2-methylpropionamidine) dihydrochloride; Sigma-Aldrich, 440914) was quickly added to each sample (44 mM final concentration). Fluorescence was recorded 25 times at 37° C. with a 70 sec delay between repeats. Trolox (0-25 μM working concentration) was included in each run to make a standard curve. PB was used as a blank and for the 0 μM Trolox sample. Area under the curve (AUC) was calculated by subtracting the AUCBlank values. A standard curve was created using the Trolox values and Trolox equivalents of the samples were calculated from the resulting equation. Results were expressed as μM TE.

[5] = system: MRC-5 cells (normal human lung fibroblasts); assay: cytotoxicity assay, MRC-5 cells (CellTiter 96 AQueous One Solution); assay type: cell-based; conditions: 24 h exposure, concentrations tested (FIG. 7)
Protocol: (§4) Cytotoxicity was tested on HepG2 and MRC-5 cells (normal lung fibroblasts) for 2 h (HepG2) and 24 h (HepG2 and MRC-5) using the CellTiter 96 AQueous One Solution Assay (Promega). MBC-005 and MBC-007 were not toxic to the HepG2 or the MRC5 cells in the concentrations tested (FIG. 6 and FIG. 7). In the CLPAA assays the cells were exposed to the test compounds for 1 h before washed. Thus a 2 h exposure would detect whether the MBC-compounds are likely to cause cell death and false results in the CLPAA assays. MRC5 and HepG2 cells were also exposed to the barettin compounds for 24 h. This would reveal more long-term damage or whether any toxicity was caused by something other than membrane lysis. […] This was above the concentrations used in the CLPAA assay.
(§5) HepG2 and MRC-5 cells were grown in MEM Earle's medium (F0325) supplemented with gentamycin (10 μg/ml, A2712), non-essential amino acids (1%, K0293), sodium pyruvate (1 mM, L0473), L-alanyl-L-glutamine (2 mM, K0302) and fetal bovine serum (10%, S0115) and incubated at 37° C. with 5% CO2. Media and supplements were from Biochrom (Berlin, Germany).
(§6) Cytotoxicity was studied in HepG2 and MRC-5 cells (normal human lung fibroblasts) for 2 h (HepG2) and 24 h (HepG2 and MRC-5). […] Absorbance was measured at 485 nm in a DTX 880 Multimode Detector. Results were calculated as % survival compared to a positive control.

HepG2 cells [6] = assay: cellular lipid peroxidation antioxidant activity (CLPAA) assay; assay type: cell-based; conditions: for activity in CLPAA assay (lipid peroxidation in HepG2 cells): FIG. 4, normalized to positive control CumOOH
Protocol: HepG2 cells were grown in MEM Earle's medium (F0325) supplemented with gentamycin (10 μg/ml, A2712), non-essential amino acids (1%, K0293), sodium pyruvate (1 mM, L0473), L-alanyl-L-glutamine (2 mM, K0302) and fetal bovine serum (10%, S0115) and incubated at 37° C. with 5% CO2. Media and supplements were from Biochrom (Berlin, Germany).
The inventors used the cellular lipid peroxidation antioxidant activity (CLPAA) assay. This assays measures the intracellular ROS (reactive oxygen species) and membrane antioxidant activity, respectively. The brominated barettin molecule gave a 55% reduction in oxidation compared to the control in the CLPAA assay.
Approximately 80.000 HepG2 cells per well were seeded in black 96 well plates with clear bottom (#3603, Corning, N.Y., USA) and incubated overnight. The cells were labelled with C11-BODIPY (#D3861, Invitrogen, Eugene, Oreg.) for 30 min and incubated for 1 h with various concentrations of the test compounds. Cumene hydroperoxide (cumOOH, #247502, Sigma-Aldrich, St. Louis, Mo.) was added to initiate lipid peroxidation and the plate was immediately placed in a Victor3 Plate Reader (Perkin Elmer, Mass., USA). Both red (590/7 nm (exitation), 632/45 nm (emission)) and green (485/14 nm, 520/10 nm) fluorescence was recorded during ˜1 h. Cells were washed with PBS between additions of new reagents. Total reaction volume was 100 μl. All incubations were carried out at 37° C. with 5% CO2. Percent inhibition was calculated relative to the positive control (cumOOH without test compound).

[7] = system: IL-6 release from THP-1 cells; assay: LPS-induced release of IL-6 from THP-1 cells (ELISA); assay type: cell-based, human
Protocol: Monocytes are well-recognised to respond to inflammatory stimuli by releasing a range of cytokines; IL-6 is a highly expressed pro-inflammatory cytokine in activated monocytes. The principle of this assay was to compare the effect of pre-incubating human cells from a monocyte-derived cell line (THP-1) with a known anti-inflammatory drug (dexamethasone; Dex), or a range of concentrations of barettin, on IL-6 generation in response to the inflammatory stimulus, lipopolysaccharide (LPS).
THP-1 cells (Health Protection Agency, Porton Down, UK) were maintained at 37° C. with 5% CO2 in RPMI 1640 containing 10% foetal bovine serum, 2 mM L-glutamine with 100 IU/ml penicillin and 100 μg/ml streptomycin (PAA laboratories Ltd, Yeovil, UK). The cells were grown in suspension and then plated out in 24-well plates at 2×10^5 cells per well.
Treatments: • a. vehicle control (RPMI 1640+0.5% DMSO) • b. 10 μM Dex for 24 h • c. 10 μg/ml LPS for 24 h • d. Pre-treated with 10 μM Dex for 30 min followed by 10 μg/ml lipopolysaccharide LPS for 24 h • e. Pre-treated with barettin at 1, 3, 10, 30 and 100 μg/ml for 30 min followed by 10 μg/ml LPS for 24 h
The concentration of Dex and barettin remained consistent throughout the incubation period; the final DMSO concentration was 0.5%. Cells were incubated at 37° C. and 5% CO2 for 24 hours.
Following incubations, cells and supernatants were harvested into 1.5 ml Eppendorf® tubes and supernatants were cleared of cells and debris by centrifugation at 300 g for 3 min at room temperature. Supernatants were transferred to clean 1.5 ml Eppendorf® tubes and stored at −80° C.
IL-6 expression was measured by ELISA (eBioscience, human IL-6 Platinum ELISA) according to the manufacturer's instructions. Data were collected using a VarioSkan Flash plate reader and Skanit software v2.4.3 (Thermo Fisher Scientific, Basingstoke, UK).

HepG2 cells [8] = assay: cytotoxicity assay, HepG2 cells (CellTiter 96 AQueous One Solution); assay type: cell-based; conditions: 2 h and 24 h exposure, concentrations tested (FIG. 6)
Protocol: as §4, §5, §6

[9] = cytotoxicity of isolated barettin over 72 h (data not shown); assay type: cell-based
Excerpt: MBC-005 and MBC-007 were not toxic to the HepG2 or the MRC5 cells in the concentrations tested (FIG. 6 and FIG. 7). […] This would reveal more long-term damage or whether any toxicity was caused by something other than membrane lysis. […] This was above the concentrations used in the CLPAA assay.

## N=C(N)NCCC[C@@H]1NC(=O)/C(=C/c2c[nH]c3cc(Br)ccc23)NC1=O [MBC-011, Barettin]
[1]
  inhibition of TNF-α: significant inhibition
[2]
  inhibition of IL-1β: significant inhibition

## O=c1cc(-c2ccc(O)c(O)c2)oc2cc(O)cc(O)c12 [luteolin, reference compound]
[3]
  FRAP value: 151 μM TE

## N=C(N)NCCCC1NC(=O)/C(=C/c2c[nH]c3cc(Br)ccc23)NC1=O (stereo not drawn) [MBC-005, cyclo-[(6-bromo-8-en-tryptophan)-arginine]]
[4]; 30 μg/ml (71.6 μM)
  ORAC value (Trolox equivalents): 5.5 μM TE
[4]
  ORAC dose-response: dose-response activity was observed
[5]
  cytotoxicity to MRC5 cells: not toxic
HepG2 cells [6]
  activity in CLPAA assay (lipid peroxidation in HepG2 cells): acts in a dose-dependent manner to reduce lipid peroxidation
HepG2 cells [6]; HepG2 cells, cumOOH-induced lipid peroxidation
  reduction in oxidation compared to the control: 55%
[7]; 1 μg/ml (~2.4 μN)
  effect on LPS-induced generation of IL-6, significance: significant
[7]; 30 μg/ml and below
  anti-inflammatory effect versus cytotoxicity: genuine anti-inflammatory effect
[7]; 1-100 μg/ml, 30 min pre-treatment, 10 μg/ml LPS 24 h
  effect on LPS-induced generation of IL-6: clear concentration-dependent effect
[7]; pilot data, THP-1 cells, compound alone
  IL-6 expression with compound alone (no LPS): did not result in the up-regulation of IL-6 expression
HepG2 cells [8]
  cytotoxicity to HepG2 cells: not toxic
[9]
  concentration at which cytotoxicity appears: ≥ 100 µg/mL
[3]
  FRAP value: 77 μM TE
  FRAP dose-response: dose-response activity was observed

## N=C(N)NCCC[C@@H]1NC(=O)/C(=C/c2c[nH]c3ccccc23)NC1=O [MBC-007]
[4]
  ORAC dose-response: dose-response activity was observed
[5]
  cytotoxicity to MRC5 cells: not toxic
HepG2 cells [6]; listed as de-brominated synthetic analogue
  activity in CLPAA assay (lipid peroxidation in HepG2 cells): did not show any significant activity
HepG2 cells [8]
  cytotoxicity to HepG2 cells: not toxic
[3]
  FRAP dose-response: dose-response activity was observed

Reference: patent US20160039796A1, “BARETTIN AND DERIVATIVES THEREOF FOR MEDICAL USE, IN PARTICULAR FOR THE TREATMENT OF DISEASES RELATED TO OXIDATIVE STRESS OR INFLAMMATION, AND FOR PRESERVING OR WASHING ORGANS” (ABC Bioscience AS, priority 2013, published 2016)
